The values below come from publication PMC10813298, “Evidence of Guanidines Potential against Leishmania (Viannia) braziliensis: Exploring In Vitro Effectiveness, Toxicities and of Innate Immunity Response Effects” (Biomolecules, 2023).

Entries after “also recorded” stand apart in the source; their conditions may differ. Like-named read-outs stand apart in the source and are kept apart here. Some results are limits rather than exact numbers.

The subject of data set [1] is L. (V.) braziliensis axenic amastigotes. Put plainly: Antileishmanial activity on axenic amastigotes (MTT, 72 h). It is filed as cell-based, Leishmania (Viannia) braziliensis. As for the experimental part: In vitro amastigogenesis was performed by transformation from promastigotes at the stationary phase of growth to obtention axenic amastigotes. This process involved altering the culture conditions to Schneider’s medium with a pH of 5.5, supplementing them with 5% FBS, and incubating them at a temperature of 32 °C [17].
(§1) Assessment of antileishmanial activity against promastigote and amastigote axenic forms of parasites followed the method described by Rodrigues et al. and involved the following steps: L. (V.) braziliensis parasites were cultured in 96-well plates at a concentration of 1 × 10^6 parasites per well. Each well contained 100 μL of supplemented Schneider medium. Serial concentrations of the test substances, ranging from 50 to 1.56 μmol/L, were prepared. Reference drugs, meglumine antimoniate (20 to 40,000 μmol/L) and amphotericin B (0.031 to 2 μmol/L) were also prepared. These concentrations were used to assess the effects of the test substances in comparison to reference drugs. The plates were incubated in a BOD incubator at 26 °C for 72 h. After the 72 h incubation period, 10 μL of MTT (5 mg/mL) was added to each well. The plates were then incubated for an additional 4 h. At the end of the 4 h incubation, formazan crystals formed by the reduction of the MTT salt were solubilized by adding 50 μL of a 10% (w/v) sodium dodecyl sulfate (SDS) solution in distilled water. Absorbance was measured using a microplate reader at a wavelength of 540 nm (Biosystems ELx800 model, Curitiba, PR, Brazil). This measurement quantified the metabolic activity of the parasites, which is indicative of their viability and proliferation. Schneider medium containing 0.2% DMSO was used as a negative control in the tests.

For data set [2], the system named is L. (V.) braziliensis intramacrophage amastigotes. Put plainly: Treatment of RAW 264.7 macrophages infected with L. (V.) braziliensis (intramacrophage amastigotes). It is filed as cell-based, Leishmania (Viannia) braziliensis. To be noted: RAW 264.7 infected with L. (V.) braziliensis, 72 h of treatment. Here is the method:
RAW 264.7 macrophages (1 × 10^6 cells/mL) were seeded in 24-well plates containing sterile glass slides, and approximately 500 μL of supplemented DMEM medium was added. The plates were then incubated at 37 °C with 5% CO2 for 4 h to facilitate cell adhesion. Following the adhesion period, promastigotes (1 × 10^7) in the stationary growth phase were introduced into the wells for infection. The plates were then incubated for an additional 4 h to allow infection to take place. Afterward, the medium was carefully removed, and the wells were washed three times with PBS to eliminate any nonadherent cells. Fresh medium containing serial concentrations of the test substances, ranging from 0.78 to 25 μmol/L, was added to the wells. Additionally, a range of concentrations of glucantime (25 to 800 μmol/L) was included for comparison. The treatment was carried out for 72 h in an incubator at 37 °C with 5% CO2. At the end of the 72 h treatment period, the glass lamina was removed from each well and stained using rapid panoptic stain (Laborklin®, Curitiba, Paraná, Brazil). The stained samples were mounted on permanent slides using Entelan® (Sigma-Aldrich, St. Louis, MO, USA), and antileishmanial activity was assessed by measuring the infection rate and counting the number of amastigotes per macrophage. Quantification was performed using light microscopy at a magnification of 1000×, and a total of 300 macrophages per lamina were evaluated. As a negative control, half DMEM containing 0.2% DMSO was used.

Data set [3] relates to L. (V.) braziliensis promastigotes. Put plainly: Antileishmanial activity on promastigotes (MTT, 72 h). It is filed as cell-based, Leishmania (Viannia) braziliensis. Here is the method:
Leishmania (Viannia) braziliensis (MHOM/BR/1975/M2903) was utilized in this study. The promastigote forms of these parasites were maintained in vitro in Schneider’s insect medium pH 7.2, supplemented with 20% fetal bovine serum (FBS) and 1% antibiotic solution (100 U/mL penicillin and 100 μg/mL streptomycin) at a temperature of 26 ± 1 °C in a Biochemical Oxygen Demand (BOD) incubator (Eletrolab EL202, São Paulo, Brazil), with regular aeration and weekly subculturing.
as §1
(§2) The different mean concentrations for promastigotes (IC50) and macrophages (CC50) were calculated using nonlinear regression. For comparisons between groups, ANOVA analysis of variance was performed followed by Tukey’s test in a statistical program, taking the p-value < 0.05 as the maximum level of statistical significance.

A further data set relates to RAW 264.7 macrophages. Kind of data set: Cytotoxicity against RAW 264.7 macrophages (MTT). It is filed as cell-based, murine. To be noted: RAW 264.7 cells, 72 h. Here is the method:
(§3) Murine macrophage cell line RAW 264.7 was used in this study. The cells were cultured in 75 cm^2 cell culture flasks (Corning Glass Workers, New York, NY, USA) using DMEM medium with a pH of 7.2, supplemented with 10% FBS and 1% antibiotic solution (containing 100 U/mL penicillin and 100 μg/mL streptomycin). The cells were maintained in an incubator at a temperature of 37 °C with 5% CO2. The spikes were performed after the cells reached complete confluence, characterized by the formation of a monolayer of cells around 48 h to 72 h after packaging.
(§4) In this study, we utilized the RAW 264.7 macrophages line (obtained from ATCC: code TIB-71™),human embryonic kidney cell line HEK-293 (obtained from ATCC: code CRL-1573™)and two human cancer cell cultures: the colon carcinoma cell line CaCo-2 and the adenocarcinomic human alveolar basal epithelial cell A549 (also obtained from ATCC: codesHTB-37™ and CCL-185™).These cell lines were cultured in Dulbecco’s modified Eagle medium (DMEM) from Gibco by Life Technologies (LifeTech Austria, Vienna, Austria). The growth medium was supplemented with 5% fetal bovine serum (FBS) from Gibco by Life Technologies and 1% penicillin-streptomycin obtained from Sigma-Aldrich (Vienna, Austria). The cells were maintained at 37 °C with 5% CO2 in a humidified incubator, and regular checks for mycoplasma contamination were carried out.
(§5) For experimental purposes, the cells were seeded into 96-well plates at a density of 2 × 10^4 cells/mL, with each well containing 100 µL of the cell suspension. The cells were allowed to adhere for 24 h. Subsequently, they were exposed to 100 µL of the test compounds, which were diluted in DMEM, with concentrations ranging from 2 to 600 µmol/L. The stock solutions of these compounds were prepared in water with 10% (v/v) dimethyl sulfoxide (DMSO) and stored at 4 °C.
(§6) To assess cell viability after 72 h of exposure to the compounds, we employed a 3-(4,5-dimethylthiazol-2-yl)-2,5-diphenyltetrazolium bromide (MTT)-based vitality assay kit (EZ4U, Biomedica, Vienna, Austria). Briefly, we added 20 µL of the EZ4U assay solution to each well and incubated the plates in the dark for 2 h. Subsequently, we measured the absorbance using a microplate reader at 450 nm, with 620 nm as a reference to reduce unspecific background values. For reliability, all experiments were conducted three times with triplicate samples.
as §2

Data set [4] can be described thus: Cytotoxicity against RAW 264.7 macrophages (MTT). It is filed as cell-based, murine. Particulars: mouse, RAW 264.7 macrophages, pH 7.2, RAW 264.7 cells. Here is the method: as §3, §4, §5, §6, §2
For another data set, the system named is aorta. Kind of data set: Vasodilator effect on aortic rings (KCl contraction). Particulars: Cavia porcellus; guinea pig aortic rings. As for the experimental part: (§7) Guinea pigs of either sex weighing between 250 or 380 g were utilized in this study. The animals were housed in a controlled environment in an air-conditioned room, maintaining a temperature of 22 to 24 °C and a relative humidity of 50% to 60%. A 12 h light–dark cycle was maintained.
(§8) On the day of the experiments, the animals were euthanized via cervical dislocation. The heart, aorta, pulmonary artery, and ileum were surgically removed and immersed in Krebs–Henseleit solution, with the following composition: NaCl 144.9 mM, KCl 4.73 mM, CaCl2 3.2 mM, MgSO4 1.18 mM, NaHCO3 24.9 mM, KH2PO4 1.18 mM, and glucose 10 mM, with the pH maintained at 7.2–7.4. This solution was continuously aerated with a mixture of 95% O2 and 5% CO2.
Papillary muscles were isolated from the right ventricle of the heart and meticulously cleared of Purkinje fibers to prevent spontaneous activity. To ensure adequate oxygen supply, only muscles with a diameter less than 0.87 mm were used. The right atrium was also dissected for assessment of chronotropic activity. […]
(§9) Following a 30 min control period, different concentrations of test compounds were cumulatively added to the bath solution every 45 min until a stable effect was achieved. The responses were recorded using a chart recorder (BD 112 Dual Channel, Kipp &Zonen, PO Box 507, 2624 BC, Delft, Holland) for subsequent evaluation. […]

The subject of another data set is pulmonary artery. Kind of data set: Vasodilator effect on pulmonary artery rings (KCl contraction). Particulars: Cavia porcellus; guinea pig pulmonary artery rings. Here is the method:
as §7, §8
(§10) Papillary muscles were isolated from the right ventricle of the heart and meticulously cleared of Purkinje fibers to prevent spontaneous activity. To ensure adequate oxygen supply, only muscles with a diameter less than 0.87 mm were used. The right atrium was also dissected for assessment of chronotropic activity. Both the aorta and pulmonary artery were cleaned and cut into 5 mm rings, while the ileum was sectioned into pieces measuring 1 to 2 cm.
One end of the dissected tissues was securely tied with silver wire for attachment to a tissue holder, while the other end was connected to a force transducer (Transbridge™, 4-Channel Transducer Amplifier, World Precision Instruments, Sarasota, FL, USA). For contractile measurements, the terminal ileum was stimulated with 60 mM KCl, and the pulmonary artery and aorta rings were exposed to a 90 mM KCl solution. […]
as §9

The subject of a further data set is terminal ileum. Put plainly: Spasmolytic effect on terminal ileum (KCl contraction). To be noted: guinea pig terminal ilea, KCl-induced contraction. As for the experimental part:
as §7, §8, §10
(§11) One end of the dissected tissues was securely tied with silver wire for attachment to a tissue holder, while the other end was connected to a force transducer (Transbridge™, 4-Channel Transducer Amplifier, World Precision Instruments, Sarasota, FL, USA). For contractile measurements, the terminal ileum was stimulated with 60 mM KCl, and the pulmonary artery and aorta rings were exposed to a 90 mM KCl solution. Papillary muscles were electrically stimulated using an Anapulse Stimulator Model 301-T and an Isolation Unit Model 305-1 (WPI, Hamden, CT, USA) with rectangular pulses of 3 ms duration at a frequency of 1 Hz. The amplitude of the stimulation pulse was maintained at 10% above the threshold level. To optimize contractility, a constant resting tension was applied throughout the experiment: 3.9 mN for papillary muscle, 4.9 mN for terminal ileum, 10.4 mN for the right atrium, and 19.6 mN for aorta and pulmonary artery rings.
(§12) Following a 30 min control period, different concentrations of test compounds were cumulatively added to the bath solution every 45 min until a stable effect was achieved. The responses were recorded using a chart recorder (BD 112 Dual Channel, Kipp &Zonen, PO Box 507, 2624 BC, Delft, Holland) for subsequent evaluation. Stock concentrations of the test compounds were prepared using DMSO. To account for any potential DMSO effect, control experiments were conducted with the solvent alone, and the observed effects were subtracted from the responses elicited by the test compounds.

In a further data set the test system is right atrium. Put plainly: Chronotropic effect on isolated right atrium. On the set-up: species or system guinea pig. To be noted: Cavia porcellus; isolated guinea pig right atrium, 3 to 100 µmol/L; read-out: EC50 reduction of heart rate activity. Here is the method:
as §7, §8, §10, §11, §12

`C[C@@H]1[C@H](O)[C@@H](C)/C=C/C=C/C=C/C=C/C=C/C=C/C=C/[C@H](O[C@@H]2O[C@H](C)[C@@H](O)[C@H](N)[C@@H]2O)C[C@@H]2O[C@](O)(C[C@@H](O)C[C@@H](O)[C@H](O)CC[C@@H](O)C[C@@H](O)CC(=O)O[C@H]1C)C[C@H](O)[C@H]2C(=O)O` [Amphotericin B, reference compound]: the EC50 in [1] (Leishmania braziliensis) was determined as 0.0004 mM; in [2] (Leishmania braziliensis, RAW264.7, 72 h) it was 0.35 µM; in data set [2], 0.3 ± 0.02 µM. The molecule also registered an IC50 in data set [3] (Leishmania braziliensis) of 0.3 ± 0.01 µM. In the data set on RAW 264.7 macrophages, this molecule had a 50% cytotoxic concentration (CC50) of 0.5 ± 0.1 µM. Half-maximal cytotoxicity in [4] (CC50 at 72 h) was put at 0.55 µM.

As to `O=C(/N=C(/NCc1ccccc1)Nc1ccccc1Br)c1ccccc1` [LQOF-G35], the IC50 in [3] (Leishmania braziliensis) amounted to 25.9 ± 1.6 µM. For the same molecule, in data set [4], it took 232 ± 3.5 µM to reach half-maximal cytotoxicity (CC50 at 72 h).

Take `O=C(/N=C(/NCc1ccccc1)Nc1cccc(Br)c1)c1ccccc1` [LQOF-G36]: the EC50 was 29 µM in the data set with aorta, 23.5 µM with pulmonary artery and 38 µM in the data set on right atrium. Also, in the data set on terminal ileum, the “spasmolytic effect / contraction force in the terminal ileum” value is given as “decrease in contraction force; also recorded: spasmolytic effect”. In data set [3] (Leishmania braziliensis), this molecule yielded an IC50 of over 50 µM.

Consider “Meglumine antimoniate [Meglumine At, reference compound]”, for which the EC50 came to 2.17 mM in [1], 452 ± 14.3 µM in data set [2] and 452 µM in data set [2] (listed as Meglumine antimoniate). Also, the IC50 in data set [3] is 19300 µM. This molecule showed a CC50 in the data set on RAW 264.7 macrophages of 846 ± 13 µM.

A word on the EC50: it is the midpoint of the concentration-response curve. A word on the IC50: it is the concentration at which inhibition is half-maximal. What is called CC50 is the concentration at which the toxic effect on the cells reaches its halfway point.
